# From the supplement of paper PMC8149375
# Experiments:
# Settings in all cases: treatment: drug + dasatinib (fixed dose, not stated); 5 days
# [1] = test system: UO-31; experiment: minimum viability across doses, drug + dasatinib, relative to DMSO (fraction); higher = less growth inhibition
# Protocol: (§1)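 Primary HTS combination arm: 8 RCC cell lines treated with 8 doses (up to 10 uM) of each library drug plus a fixed dose of dasatinib (dose not stated) for 5 days; viability read by CellTiter-Glo and normalised to DMSO. GI50 was fitted with XLfit, AUC is the area under the dose-response curve, and minimum viability is the lowest fraction of DMSO viability across doses.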
# [2] = test system: 769-P; experiment: as above
# Protocol: as §1
# [3] = test system: 786-O; experiment: as above
# Protocol: as §1
# [4] = test system: A498; experiment: as above
# Protocol: as §1
# [5] = test system: SN12C; experiment: as above
# Protocol: as §1
# [6] = test system: TK-10; experiment: as above
# Protocol: as §1
# [7] = test system: CAKI-1; experiment: as above
# Protocol: as §1
# [8] = test system: ACHN; experiment: as above
# Protocol: as §1
# [9] = test system: UO-31; experiment: AUC of dose-response viability curve, drug + dasatinib, normalised to DMSO (arbitrary (AUC of normalised viability)); higher = less growth inhibition
# Protocol: as §1
# [10] = test system: 769-P; experiment: as above
# Protocol: as §1
# [11] = test system: 786-O; experiment: as above
# Protocol: as §1
# [12] = test system: A498; experiment: as above
# Protocol: as §1
# [13] = test system: SN12C; experiment: as above
# Protocol: as §1
# [14] = test system: TK-10; experiment: as above
# Protocol: as §1
# [15] = test system: CAKI-1; experiment: as above
# Protocol: as §1
# [16] = test system: ACHN; experiment: as above
# Protocol: as §1
# [17] = test system: UO-31; experiment: GI50 of drug in presence of dasatinib; higher = less potent
# Protocol: as §1
# [18] = test system: 769-P; experiment: as above
# Protocol: as §1
# [19] = test system: A498; experiment: as above
# Protocol: as §1
# [20] = test system: SN12C; experiment: as above
# Protocol: as §1
# [21] = test system: TK-10; experiment: as above
# Protocol: as §1
# [22] = test system: CAKI-1; experiment: as above
# Protocol: as §1
# [23] = test system: 786-O; experiment: as above
# Protocol: as §1
GI50 of drug [23] [µM],Compound,minimum viability across doses [1],minimum viability across doses [2],minimum viability across doses [3],minimum viability across doses [4],minimum viability across doses [5],minimum viability across doses [6],minimum viability across doses [7],minimum viability across doses [8],AUC of dose-response viability curve [9],AUC of dose-response viability curve [10],AUC of dose-response viability curve [11],AUC of dose-response viability curve [12],AUC of dose-response viability curve [13],AUC of dose-response viability curve [14],AUC of dose-response viability curve [15],AUC of dose-response viability curve [16],GI50 of drug [17] [µM],GI50 of drug [18] [µM],GI50 of drug [19] [µM],GI50 of drug [20] [µM],GI50 of drug [21] [µM],GI50 of drug [22] [µM]
1.55,O=C1NC(=O)/C(=C/c2ccc3nccnc3c2)S1 + Cc1nc(Nc2ncc(C(=O)Nc3c(C)cccc3Cl)s2)cc(N2CCN(CCO)CC2)n1 [dasatinib],0.879,0.491,0.464,0.781,0.704,0.64,0.343,0.479,3.46,2.33,2.15,3.09,2.56,2.57,2.23,2.01,> 10,8.39,> 10,> 10,> 10,4.25
> 10,OCCn1cc(-c2cnc3nnn(Cc4ccc5ncccc5c4)c3n2)cn1 + Cc1nc(Nc2ncc(C(=O)Nc3c(C)cccc3Cl)s2)cc(N2CCN(CCO)CC2)n1 [dasatinib],0.926,0.651,0.702,0.872,0.614,0.688,0.408,0.448,3.41,2.44,2.79,3.25,2.32,2.57,2.02,1.77,> 10,> 10,> 10,> 10,> 10,
4.54,O=c1cc(N2CCOCC2)oc2c(-c3ccccc3)cccc12 + Cc1nc(Nc2ncc(C(=O)Nc3c(C)cccc3Cl)s2)cc(N2CCN(CCO)CC2)n1 [dasatinib],0.457,0.412,0.394,0.656,0.512,0.663,0.393,0.362,3.24,2.2,2.28,2.88,2.34,2.49,1.98,1.77,9.2,5.32,> 10,> 10,> 10,3.01
> 10,C[C@@H]1CCN(C(=O)CC#N)C[C@@H]1N(C)c1ncnc2[nH]ccc12 + Cc1nc(Nc2ncc(C(=O)Nc3c(C)cccc3Cl)s2)cc(N2CCN(CCO)CC2)n1 [dasatinib],1.23,0.664,0.743,1,0.695,0.7,0.685,0.363,4.82,2.6,3.03,3.91,2.51,2.59,2.53,1.62,> 10,> 10,> 10,> 10,> 10,> 10
> 10,Cn1cnc(N)c2ncnc1-2 [3-Methyladenine] + Cc1nc(Nc2ncc(C(=O)Nc3c(C)cccc3Cl)s2)cc(N2CCN(CCO)CC2)n1 [dasatinib],1.03,0.649,0.542,0.947,0.703,0.691,0.673,0.329,4.32,2.57,2.32,3.49,2.57,2.57,2.47,1.56,> 10,> 10,> 10,> 10,> 10,> 10
> 10,Cc1ccc(-n2nc(C(C)(C)C)cc2NC(=O)Nc2ccc(OCCN3CCOCC3)c3ccccc23)cc1 [BIRB 796 (Doramapimod)] + Cc1nc(Nc2ncc(C(=O)Nc3c(C)cccc3Cl)s2)cc(N2CCN(CCO)CC2)n1 [dasatinib],0.946,0.537,0.639,0.755,0.659,0.66,0.567,0.439,3.79,2.29,2.63,3.07,2.4,2.49,2.29,1.78,> 10,> 10,> 10,> 10,> 10,> 10
1.48,CC[C@H](Nc1ncnc2[nH]cnc12)c1nc2cccc(F)c2c(=O)n1-c1ccccc1 [CAL-101 (GS-1101)] + Cc1nc(Nc2ncc(C(=O)Nc3c(C)cccc3Cl)s2)cc(N2CCN(CCO)CC2)n1 [dasatinib],0.362,0.477,0.298,0.843,0.546,0.493,0.0955,0.341,3.55,2.32,2.12,3.29,2.3,2.44,1.84,1.86,6.29,7.53,> 10,> 10,8.33,

# The next lines start with the compound.
Compound,GI50 of drug [23] [µM],minimum viability across doses [1],minimum viability across doses [2],minimum viability across doses [3],minimum viability across doses [4],minimum viability across doses [5],minimum viability across doses [6],minimum viability across doses [7],minimum viability across doses [8],AUC of dose-response viability curve [9],AUC of dose-response viability curve [10],AUC of dose-response viability curve [11],AUC of dose-response viability curve [12],AUC of dose-response viability curve [13],AUC of dose-response viability curve [14],AUC of dose-response viability curve [15],AUC of dose-response viability curve [16],GI50 of drug [17] [µM],GI50 of drug [18] [µM],GI50 of drug [19] [µM],GI50 of drug [20] [µM],GI50 of drug [21] [µM],GI50 of drug [22] [µM]
CC1CCN(C(=O)CC#N)C[C@@H]1N(C)c1ncnc2[nH]ccc12.O=C(O)CC(O)(CC(=O)O)C(=O)O (stereo in doubt) + Cc1nc(Nc2ncc(C(=O)Nc3c(C)cccc3Cl)s2)cc(N2CCN(CCO)CC2)n1 [dasatinib],,0.934,0.681,0.439,0.887,0.69,0.647,0.567,0.304,3.69,2.6,1.92,3.5,2.48,2.51,2.56,1.7,> 10,> 10,> 10,> 10,> 10,> 10
Cc1ccccc1-n1c(Cn2cnc3c(N)ncnc32)nc2cccc(C)c2c1=O + Cc1nc(Nc2ncc(C(=O)Nc3c(C)cccc3Cl)s2)cc(N2CCN(CCO)CC2)n1 [dasatinib],5.69,0.738,0.612,0.444,0.859,0.695,0.651,0.516,0.443,3.34,2.4,1.98,3.27,2.53,2.49,2.28,1.87,> 10,> 10,> 10,> 10,> 10,> 10
CCn1c(N)c(C(=O)NC)c(=O)c2ccc(C#C[C@@](C)(O)COC)nc21 + Cc1nc(Nc2ncc(C(=O)Nc3c(C)cccc3Cl)s2)cc(N2CCN(CCO)CC2)n1 [dasatinib],> 10,0.884,0.671,0.589,0.773,0.684,0.721,0.588,0.432,4.43,2.74,2.59,3.2,2.52,2.72,2.43,1.87,> 10,> 10,> 10,> 10,> 10,> 10
NC(=O)c1ccc(-c2nc(-c3ccc4c(c3)OCO4)c(-c3ccccn3)[nH]2)cc1 + Cc1nc(Nc2ncc(C(=O)Nc3c(C)cccc3Cl)s2)cc(N2CCN(CCO)CC2)n1 [dasatinib],2.37,0.844,0.234,0.485,0.592,0.446,0.636,0.456,0.317,3.57,1.77,2.24,3.17,2.41,2.75,2.18,2.08,> 10,,> 10,> 10,> 10,3
CCS(=O)(=O)N1CC(CC#N)(n2cc(-c3ncnc4[nH]ccc34)cn2)C1 + Cc1nc(Nc2ncc(C(=O)Nc3c(C)cccc3Cl)s2)cc(N2CCN(CCO)CC2)n1 [dasatinib],6.65,0.917,0.625,0.399,1.07,0.692,0.689,0.47,0.44,4.24,2.46,2.58,4.02,2.51,2.61,2.4,1.78,> 10,> 10,> 10,> 10,> 10,8.06
O=C1Nc2ccccc2/C1=C1/Nc2ccccc2C1=O [Indirubin] + Cc1nc(Nc2ncc(C(=O)Nc3c(C)cccc3Cl)s2)cc(N2CCN(CCO)CC2)n1 [dasatinib],,0.799,0.632,0.394,0.941,0.624,0.593,0.497,0.435,3.15,2.38,1.76,3.41,2.36,2.48,2.02,1.65,> 10,> 10,> 10,> 10,> 10,> 10
COc1ccc2c(c1OC)N=C(NC(=O)c1cccnc1)N1CCN=C21 [PIK-90] + Cc1nc(Nc2ncc(C(=O)Nc3c(C)cccc3Cl)s2)cc(N2CCN(CCO)CC2)n1 [dasatinib],,0.434,0.268,0.388,0.762,0.52,0.552,0.136,0.235,2.69,2.03,1.76,3.11,2.21,2.3,1.82,1.7,3.82,1.48,> 10,2.26,> 10,0.424
Cc1cc(C(C)Nc2ccccc2)c2nc(N3CCOCC3)cc(=O)n2c1 (configuration not stated) [TGX-221] + Cc1nc(Nc2ncc(C(=O)Nc3c(C)cccc3Cl)s2)cc(N2CCN(CCO)CC2)n1 [dasatinib],,0.349,0.346,0.299,0.949,0.624,0.554,0.281,0.424,3.16,2.01,2.04,3.6,2.4,2.35,1.83,1.82,4.86,,> 10,> 10,> 10,0.231
